Earlier results on one molecule are cited in patent US20080305060A1, “AQUEOUS-ALCOHOLIC DEPIGMENTING GELS” (GALDERMA RESEARCH & DEVELOPMENT, priority 2005, published 2008).

Like-named read-outs stand apart in the source and are kept apart here.

For the molecule `Oc1ccc(O)cc1` [hydroquinone], the Incidence of irritation result is, setting by setting: (10% hydroquinone concentration) “relatively high”; (hydroquinone concentration of 2%) “virtually nonexistent”; (preparations with a 5% dose of hydroquinone) “reduces greatly”.
